The source of these data is patent publication US20240269170A1, “Treatment of Inflammatory Conditions or Diseases” (Queen Mary University of London, priority 2021, published 2024).

The test system of the experiment is K/B×N serum induced arthritis in C57BL/6 mice. Kind of experiment: Sustained K/B×N serum induced arthritis, MCTR3 given 10 days after disease onset. It counts as in vivo, mouse. How it is done:
(A-D) K/B×N serum (100 μL via intraperitoneal injection, i.p.) was administered to C57BL/6 mice on days 0, 2 and 8 to initiate and prolong inflammatory arthritis. Mice were treated 1 μg/mouse MCTR3 or vehicle (PBS+0.1% EtOH) on day 10, 12 and 14 via intravenous (i.v.) injection. Disease course was assessed by evaluating A) clinical scores and B) paw oedema daily. Results are mean±SEM, n=9 mice per group. Statistical differences were evaluated using a Two-Way ANOVA. Arrows denote days when MCTR3 was administered. (C,D) paws were harvested on day 25, and cells liberated from the joints and the expression of phenotypic markers was evaluated on joint macrophages using flow cytometry and PLS-DA. (C) scores plot with highlighted regions denoting the clusters representing cells from each group and (D) VIP scores for each of the markers evaluated. Each dot in the score plot represents a separate mouse. (E-H) Arthritis was induced in DBA/1 mice by administration of 10 μg G6PI in CFA on Day 0. On day 24, 26 and 28 (denoted in blue arrows), mice were administered 1 μg/mouse MCTR3 or vehicle (PBS+0.1% EtOH) i.v. and (E) clinical scores and (F) paw oedema were measured. Results are mean±SEM, n=mice 7 per group from 2 separate experiments. Statistical differences were evaluated using a Two-Way ANOVA. (G-H) paws were harvested on day 36, and cells liberated from the joints and the expression of phenotypic markers was evaluated on joint macrophages using flow cytometry and PLS-DA. (G) scores plot with highlighted regions denoting the clusters representing cells from each group and (H) VIP scores for each of the markers evaluated. Each dot in the score plot represents a separate mouse.
FIG. 2: MCTR3 promotes bone and cartilage repair. C57BL/6 mice were administered 100 μL K/B×N serum i.p. on day 0, 2 and 8. Mice were treated with 1 μg/mouse MCTR3 or vehicle (PBS+0.1% EtOH) i.v. on day 10, 12 and 14. Hind paws and blood were collected on day 25 and A) glycosaminoglycan content was evaluated using Safranin-O staining. (left and centre panels) Representative images from Safranin-O stained knee joints and (right panel) quantification of Safranin-O stained knee joints. Results are mean±SEM, n=8 per group. Statistical differences were evaluated using Mann-Whitney U test. B-D) Expression of collagen type 2 (Col 2) and collagen type X (Col X) was evaluated using immunohistochemistry. B) Representative images from immunofluorescent assessment of Col 2 and Col X expression, C) mean intensity of Col 2 and D) average number of cells expressing Col X. Results are mean±SEM, n=5 per group, statistical differences were evaluated using Mann-Whitney U test. E-I) microCT analysis was performed on ankle joints ex vivo to assess bone callus cover. D) Representative images of ankles from vehicle and MCTR3 treated mice, where red represents the callus area. F) Callus tissue volume, G) bone volume, H) bone surface and I) the ratio of bone surface to bone volume of the ankles from mice treated with either vehicle or MCTR3. Results are mean±SEM, n=8 per group from two separate experiments. Statistical differences were evaluated Mann-Whitney U test. J,K) Blood was collected at the end of the experiment and plasma PINP and CTX-I levels were assessed. Results are mean±SEM, n=5 for Vehicle and n=7 for MCTR3 groups. Statistical differences were evaluated Mann Whitney U test.
FIG. 8: MCTR3 decreased leukocyte infiltration and cartilage damage in arthritic mice. Related to FIG. 1. C57BL/6 mice were administered 100 μL K/B×N serum i.p. on day 0, 2 and 8. Mice were treated with 1 μg/mouse MCTR3 or vehicle i.v. (PBS+0.1% EtOH) on day 10, 12 and 14. Hind paws were collected on day 25, fixed and stained using H&E stain. (A) representative images (B) Pannus size (C) leukocyte infiltration and (D) cartilage damage were evaluated. Results are mean±SEM. n=5 mice per group. IFP=intrapatellar fat, M=meniscus, TB=Tibia, PF=Pannus formation, Red arrows denote leukocyte infiltration. […]

Setting [1] is: 1 μg/mouse i.v. on day 10, 12 and 14.
Where [2] appears, read: 1 μg/mouse i.v. on day 10, 12 and 14, hind paws day 25.
The mark [3] stands for this setting: 1 μg/mouse i.v., ELISA, end of experiment.
[4] abbreviates: 1 μg/mouse i.v., ankle joints day 25, microCT.
[5] abbreviates: 1 μg/mouse i.v., day 25, flow cytometry, VIP score.
Where [6] appears, read: 1 μg/mouse i.v., day 25, immunohistochemistry.

SMILES strings stand for the structures.

Turning to `CC/C=C\C/C=C\C[C@H](O)[C@@H](/C=C/C=C/C=C\C/C=C\CCC(=O)O)SC[C@H](N)C(=O)O` [MCTR3, 13R-cysteinyl, 14S-hydroxy-4Z, 7Z, 9E, 11E, 13R, 14S, 16Z, 19Z-docosahexaenoic acid], under setting [1], the clinical scores result is listed as “significant reduction” and the joint oedema entry was “marked reduction”. Besides, the “safranin O-staining in joints (glycosaminoglycan content)” value (1 μg/mouse i.v. on day 10, 12 and 14, day 25) is “significantly higher”. Moreover, under setting [2], the “cartilage damage (H&E)” value is recorded as “significantly reducing” and the “leukocyte infiltration (H&E)” value is listed as “significantly reducing”. The resolution interval (1 μg/mouse i.v. on day 10, 12 and 14, vehicle ~9 days) is listed as approximately 5 days. Also, under setting [3], the “plasma CTX concentrations (bone resorption marker)” value is “significant reduction” and the “plasma PINP levels (bone formation marker)” value was “similar”. Also, under setting [4], the “bone callus size (total volume and surface area occupied by the callus)” value was “smaller”; the “surface to volume ratio in the callus” value is reported as “significant increase”. In addition, under setting [5], the “Arginase (Arg)-1 in joint macrophages” value is reported as “upregulation” and the “Interleukin (IL)-10 in joint macrophages” value is reported as “upregulation”. Further, under setting [6], the “expression of collagen 2 in joints” value was “increase” and the “expression of collagen X in joints” value is listed as “increase”.
